# In PubChem BioAssay (NCI):
#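 Protocol summary: plate cells (96-well), add compound at 5 concentrations, incubate 48 h, interpolate endpoints linearly. TGI is the concentration that stops growth completely.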
# How the values were obtained:
# Assay in all cases: NCI tumour cell line growth inhibition, 48 h
# [1] = tested on: 786-0 renal
# [2] = tested on: A498 renal
# [3] = tested on: A549 NSCLC
# [4] = tested on: ACHN renal
# [5] = tested on: CAKI-1 renal
# [6] = tested on: CCRF-CEM leukemia
# [7] = tested on: COLO 205 colon
# [8] = tested on: DLD-1 colon
# [9] = tested on: DMS 114 small cell lung
# [10] = tested on: DMS 273 small cell lung
# [11] = tested on: EKVX NSCLC
# [12] = tested on: HCC-2998 colon
# [13] = tested on: HCT-116 colon
# [14] = tested on: HCT-15 colon
# [15] = tested on: HL-60(TB) leukemia
# [16] = tested on: HOP-18 NSCLC
# [17] = tested on: HOP-62 NSCLC
# [18] = tested on: HOP-92 NSCLC
# [19] = tested on: HT29 colon
# [20] = tested on: IGROV1 ovarian
# [21] = tested on: K-562 leukemia
# [22] = tested on: KM12 colon
# [23] = tested on: KM20L2 colon
# [24] = tested on: LOX IMVI melanoma
# [25] = tested on: LXFL 529 NSCLC
# [26] = tested on: M14 melanoma
# [27] = tested on: M19-MEL melanoma
# [28] = tested on: MALME-3M melanoma
# [29] = tested on: MCF7 breast
# [30] = tested on: MOLT-4 leukemia
# [31] = tested on: NCI-H226 lung
# [32] = tested on: NCI-H23 lung
# [33] = tested on: NCI-H460 lung
# [34] = tested on: NCI-H522 lung
# [35] = tested on: NCI/ADR-RES ovarian
# [36] = tested on: OVCAR-3 ovarian
# [37] = tested on: OVCAR-4 ovarian
# [38] = tested on: OVCAR-5 ovarian
# [39] = tested on: OVCAR-8 ovarian
# [40] = tested on: P388 leukemia
# [41] = tested on: P388/ADR leukemia
# [42] = tested on: RPMI-8226 leukemia
# [43] = tested on: RXF 393 renal
# [44] = tested on: RXF-631 renal
# [45] = tested on: SF-268 CNS
# [46] = tested on: SF-295 CNS
# [47] = tested on: SF-539 CNS
# [48] = tested on: SK-MEL-2 melanoma
# [49] = tested on: SK-MEL-28 melanoma
# [50] = tested on: SK-MEL-5 melanoma
# [51] = tested on: SK-OV-3 ovarian
# [52] = tested on: SN12C renal
# [53] = tested on: SN12K1 renal
# [54] = tested on: SNB-19 CNS
# [55] = tested on: SNB-75 CNS
# [56] = tested on: SNB-78 CNS
# [57] = tested on: SR leukemia
# [58] = tested on: SW-620 colon
# [59] = tested on: TK-10 renal
# [60] = tested on: U251 CNS
# [61] = tested on: UACC-257 melanoma
# [62] = tested on: UACC-62 melanoma
# [63] = tested on: UO-31 renal
compound,measurement,setting,value
ClCCN(CC#CCCCC#CCN(CCCl)CCCl)CCCl,TGI,[1],20.7 µM
same,TGI,[2],26.4 µM
same,TGI,[3],31.8 µM
same,TGI,[4],15.2 µM
same,TGI,[5],32.7 µM
same,TGI,[6],10.6 µM
same,TGI,[7],30.3 µM
same,TGI,[8],35.7 µM
same,TGI,[9],15.8 µM
same,TGI,[10],16.6 µM
same,TGI,[11],44.8 µM
same,TGI,[12],32.9 µM
same,TGI,[13],25.3 µM
same,TGI,[14],27.2 µM
same,TGI,[15],7.18 µM
same,TGI,[16],44.5 µM
same,TGI,[17],29.3 µM
same,TGI,[18],43.1 µM
same,TGI,[19],24.8 µM
same,TGI,[20],35.1 µM
same,TGI,[21],37.7 µM
same,TGI,[22],44.4 µM
same,TGI,[23],27.7 µM
same,TGI,[24],20.9 µM
same,TGI,[25],28.3 µM
same,TGI,[26],28.6 µM
same,TGI,[27],29.5 µM
same,TGI,[28],32.5 µM
same,TGI,[29],37.5 µM
same,TGI,[30],6.59 µM
same,TGI,[31],37.2 µM
same,TGI,[32],29.3 µM
same,TGI,[33],16.3 µM
same,TGI,[34],21.7 µM
same,TGI,[35],58.1 µM
same,TGI,[36],26.7 µM
same,TGI,[37],61.2 µM
same,TGI,[38],26 µM
same,TGI,[39],23.9 µM
same,TGI,[40],9.73 µM
same,TGI,[41],9.09 µM
same,TGI,[42],13.4 µM
same,TGI,[43],33.5 µM
same,TGI,[44],23.8 µM
same,TGI,[45],33.5 µM
same,TGI,[46],28.1 µM
same,TGI,[47],27 µM
same,TGI,[48],23.4 µM
same,TGI,[49],38.6 µM
same,TGI,[50],24.3 µM
same,TGI,[51],27.8 µM
same,TGI,[52],21.2 µM
same,TGI,[53],25.3 µM
same,TGI,[54],27.6 µM
same,TGI,[55],36.4 µM
same,TGI,[56],57.5 µM
same,TGI,[57],7.66 µM
same,TGI,[58],23.3 µM
same,TGI,[59],41 µM
same,TGI,[60],23.8 µM
same,TGI,[61],29.2 µM
same,TGI,[62],20 µM
same,TGI,[63],47 µM
